Experimental data from US12685733B2, “Indole molecules and use thereof in the inhibition of DNA polymerases” (BioVentures, LLC, priority 2019, dated 2026).
Like-named read-outs stand apart in the source and are kept apart here.

What was measured:
hpol η = biological target: T1, hpol η (Homo sapiens, UniProt Q9Y253); assay: Gel-based primer extension assay; type: biochemical; conditions: 10 μM; 2 nM hpol η
T1 construct: hpol η (residues 1-437); made in house
T1 sequence (Q9Y253 1-437): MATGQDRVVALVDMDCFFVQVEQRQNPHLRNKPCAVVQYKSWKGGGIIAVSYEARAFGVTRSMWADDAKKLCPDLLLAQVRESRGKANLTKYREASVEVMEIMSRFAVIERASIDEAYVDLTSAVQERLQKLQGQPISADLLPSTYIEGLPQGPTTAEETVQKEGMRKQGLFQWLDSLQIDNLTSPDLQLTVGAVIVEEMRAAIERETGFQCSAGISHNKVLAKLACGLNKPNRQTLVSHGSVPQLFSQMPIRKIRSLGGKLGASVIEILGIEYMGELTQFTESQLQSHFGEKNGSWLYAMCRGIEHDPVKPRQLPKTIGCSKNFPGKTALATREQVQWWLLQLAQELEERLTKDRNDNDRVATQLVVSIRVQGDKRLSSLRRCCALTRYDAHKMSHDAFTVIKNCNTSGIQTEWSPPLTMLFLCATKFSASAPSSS

[1] = tested on: hpol κ-proficient HAP-1 cells; assay: Alkaline comet assay; type: cell-based, human
Method: (§1) To evaluate DNA damage upon treatment with TMZ and the compound IAG-10, the alkaline comet assay was performed using protocol as described by the manufacturer (Trevigen, Gaithersburg, MD). Briefly, 100 000 HAP-1 cells per well for both the hpol κ-proficient and hpol κ-deficient cell types were plated in a 12-well dish. Both types of cells were treated with 0.5 μM of IAG-10 alone or in combination with TMZ (100 μM) for 1 h. Cells treated with DMSO served as the control. Following treatment, cells were harvested, washed in ice-cold Ix PBS, and counted. The cells were then suspended in low-melting agarose to a final dilution of 200-300 cells per well on the comet slide. The comet slides with wells coated with cell/agarose mixture were incubated at 4° C. in the dark to allow the agarose to solidify before immersing the slides in proprietary lysis solution for 1 h. Each comet slide was then immersed in an alkaline unwinding solution (200 mM NaOH, 1 mM EDTA) for 20 min at RT before placing them in the electrophoresis unit in […] of the same solution. Samples were electrophoresed at 21 V for 30 min at 4° C. The comet slides were washed and dried completely at 37° C. before staining with SYBR Gold diluted in TE buffer (10 mM Tris-HCl, pH 7.5, 1 mM EDTA). The comets were visualized using an EVOS FL Auto microscope (Life Technologies, Carlsbad, CA) set at 10× magnification and were scored using CometScore software. All experiments were repeated in 3 biological replicates with at least 60 comets scored for each condition. Results were plotted using Graphpad Prism, as the percent of DNA in the tail of each comet, and statistical significance between treatment conditions was calculated using one-way ANOVA with the Bonferroni posthoc correction.

[2] = tested on: hpol κ-deficient HAP-1 cells; assay: Alkaline comet assay; type: cell-based, human
Method: as §1

hRev1 = biological target: T2, hRev1 (Homo sapiens, UniProt Q9UBZ9); assay: Gel-based primer extension assay; type: biochemical; conditions: 10 μM; 10 nM Rev1
T2 construct: hRevl (residues 330-833); made in house
T2 sequence (Q9UBZ9 330-833): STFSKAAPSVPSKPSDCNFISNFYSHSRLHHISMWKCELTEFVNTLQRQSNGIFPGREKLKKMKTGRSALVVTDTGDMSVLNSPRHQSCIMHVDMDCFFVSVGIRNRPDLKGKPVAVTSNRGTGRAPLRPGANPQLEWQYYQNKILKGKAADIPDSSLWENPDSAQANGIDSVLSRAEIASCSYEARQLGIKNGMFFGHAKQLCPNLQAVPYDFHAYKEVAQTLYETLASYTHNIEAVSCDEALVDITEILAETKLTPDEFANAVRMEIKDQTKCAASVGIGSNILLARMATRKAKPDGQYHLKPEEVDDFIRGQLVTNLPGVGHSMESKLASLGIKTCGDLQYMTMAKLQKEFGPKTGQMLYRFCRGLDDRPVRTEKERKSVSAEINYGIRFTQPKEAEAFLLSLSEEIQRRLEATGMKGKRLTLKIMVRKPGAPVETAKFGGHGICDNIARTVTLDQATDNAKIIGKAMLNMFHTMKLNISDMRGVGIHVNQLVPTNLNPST

hpol κ = biological target: T3, hpol κ (Homo sapiens, UniProt Q9UBT6); assay: Fluorescence-based (TAMRA/BHQ strand displacement) DNA polymerase activity assay
T3 sequence (Q9UBT6 19-526): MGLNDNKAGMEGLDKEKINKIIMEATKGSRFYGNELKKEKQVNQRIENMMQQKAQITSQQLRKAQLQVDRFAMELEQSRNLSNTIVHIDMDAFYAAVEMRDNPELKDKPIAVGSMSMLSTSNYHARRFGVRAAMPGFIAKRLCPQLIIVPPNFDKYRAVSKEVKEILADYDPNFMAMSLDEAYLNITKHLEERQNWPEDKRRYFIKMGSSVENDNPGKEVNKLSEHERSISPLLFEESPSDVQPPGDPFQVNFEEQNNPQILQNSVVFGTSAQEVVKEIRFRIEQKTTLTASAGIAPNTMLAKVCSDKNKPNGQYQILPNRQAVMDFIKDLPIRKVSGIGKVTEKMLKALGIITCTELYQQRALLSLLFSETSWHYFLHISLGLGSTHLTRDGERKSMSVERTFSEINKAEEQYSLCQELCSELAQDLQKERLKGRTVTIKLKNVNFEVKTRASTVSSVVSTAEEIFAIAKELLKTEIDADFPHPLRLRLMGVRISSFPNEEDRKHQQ

[3] = 100 μM TMZ + 0.5 μM IAG-10, 1 h
[4] = single agent, 1 h: 0.5 μM IAG-10 or 100 μM TMZ

## Cl.[H]/N=C(\N)NN=Cc1cn(C(=O)c2cccc3ccccc23)c2ccc(Cl)cc12 [IAG-10, (E)-2-((1-(1-naphthoyl)-5-chloro-1H-indol-3-y1)methylene)hydrazine-1-carboximidamide hydrochloride]
Hpol η
  polymerase activity relative to DMSO control: only hpol κ was inhibited
[1]; [3]
  DNA damage (percent DNA in the tail), combination: increased even further
[1]; [4]
  DNA damage (percent DNA in the tail) compared to control: approximately twofold
[2]; [3]
  DNA damage (percent DNA in the tail), combination: did not increase further
[2]; [4]
  DNA damage (percent DNA in the tail) compared to control: did not increase DNA damage over control
hRev1
  polymerase activity relative to DMSO control: only hpol κ was inhibited
Hpol κ; 10 μM, 25 nM hpol κ, comparison with A, B, X family pols
  polymerase activity relative to DMSO control: only hpol κ activity was inhibited
Hpol κ; IAG compounds, 40 μM, rate relative to DMSO control, three independent experiments
  % Activity Mean (hpol κ activity): 0.0%
Hpol κ; after altering the reaction conditions (lower enzyme and DNA)
  specificity for hpol κ over η: ~ 30 fold
Hpol κ; before altering the reaction conditions
  specificity for hpol κ over η: ~ 2 fold
Hpol κ; read-out: IC50 against hpol κ, structure-activity study, 1 nM hpol κ, 50 nM DNA
  IC50: 7.2 µM
Hpol κ; read-out: IC50 for inhibition of hpol κ, 0.5 nM DNA, 0.1 nM hpol κ, 95% confidence interval in parentheses
  IC50: 0.72 µM
Hpol κ; read-out: IC50 for inhibition of hpol κ, 1 nM DNA, 95% confidence interval in parentheses
  IC50: 1.1 µM
Hpol κ; read-out: IC50 for inhibition of hpol κ, 2.5 nM DNA, 95% confidence interval in parentheses
  IC50: 1.4 µM
Hpol κ; read-out: IC50 for inhibition of hpol κ, 10 nM DNA, 95% confidence interval in parentheses
  IC50: 8.9 µM
Hpol κ; read-out: IC50 for inhibition of hpol κ, 25 nM DNA, 95% confidence interval in parentheses
  IC50: 8.9 µM
Hpol κ; read-out: IC50 for inhibition of hpol κ, 50 nM DNA, 95% confidence interval in parentheses
  IC50: 7.2 µM
Hpol κ; steady-state kinetics with varying inhibitor concentration
  turnover number (kcat), hpol κ-catalyzed dTTP insertion: sharp decrease
